For 21 compounds, IC50 results are on record in US8673894B2 (Hoffmann-La Roche Inc., priority 2010, dated 2014).

Where a name gives a salt, the structure may show the parent alone.

The target of assay [1] is T1, endogenous cellular BACE2 (Rattus norvegicus, UniProt Q6IE75).
T1 construct: endogenous cellular BACE2 in the Ins1e rat cell line; endogenous in cells; host or cells: INS-TMEM27 (INS1e-derived rat insulinoma cell line with doxycycline-inducible full-length human TMEM27)
T1 sequence (Q6IE75 63-514): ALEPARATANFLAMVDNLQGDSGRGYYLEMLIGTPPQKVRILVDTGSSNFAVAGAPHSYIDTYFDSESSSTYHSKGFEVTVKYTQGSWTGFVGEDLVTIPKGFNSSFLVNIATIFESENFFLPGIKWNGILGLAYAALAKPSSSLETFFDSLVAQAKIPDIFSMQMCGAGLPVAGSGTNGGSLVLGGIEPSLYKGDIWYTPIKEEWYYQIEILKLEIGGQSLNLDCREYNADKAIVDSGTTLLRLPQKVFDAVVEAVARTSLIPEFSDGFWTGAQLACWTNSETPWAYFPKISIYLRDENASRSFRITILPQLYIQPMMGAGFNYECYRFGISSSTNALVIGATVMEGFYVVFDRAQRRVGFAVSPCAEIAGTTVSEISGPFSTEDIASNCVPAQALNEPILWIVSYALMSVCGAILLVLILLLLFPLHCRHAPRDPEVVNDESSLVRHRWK
Description: Assay for BACE inhibition by measuring cellular TMEM27 cleavage. Format: cell-based. Particulars: INS-TMEM27 (INS1e-derived) cells, shed human TMEM27 in supernatant by ELISA. The procedure, abridged:
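INS1e rat cells with doxycycline-inducible human TMEM27 get inhibitor 2 h before doxycycline (500 ng/ml final), then 46 h further at 37° C. Shed TMEM27 in the supernatant is measured by sandwich ELISA, and the EC50 comes from a curve fit of the ELISA signal.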

The subject of the next assay is Aβ40. Put plainly: Cellular Aβ-lowering assay. The format is cell-based. Particulars: HEK293 cells stably expressing human APP695, Aβ40 in supernatant by ELISA after 18-20 hrs; read-out: Cellular assay Abeta40 IC50. A digest of the protocol:
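HEK293 cells stably expressing human wild-type APP695 were treated with compound for 18-20 h at 37 °C in 0.8% v/v DMSO. Secreted Aβ40 in the supernatant was measured by sandwich ELISA (Aβ40 C-terminus-specific capture, HRP-4G8 detection, TMB read at 450 nm) and quantified against a pure Aβ peptide standard curve.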
(In general: In an ELISA, binding on a coated surface is turned into a signal by an enzyme label.)

As to `CCc1ocnc1C(=O)Nc1ccc(F)c([C@@]2(C)N=C(N)COCC2(F)F)c1` [Example 99, (R)-N-(3-(3-Amino-6,6-difluoro-5-methyl-2,5,6,7-tetrahydro-1,4-oxazepin-5-yl)-4-fluorophenyl)-5-ethyloxazole-4-carboxamide], the concentration for half-maximal inhibition (IC50) – broadly, the concentration that inhibits the measured activity by half – in assay [1] amounted to 118 nM; with Aβ40, 130 nM.

Regarding `CC[C@]1(c2cc(NC(=O)c3nc[nH]c3C)ccc2F)N=C(N)COCC1(F)F` [Example 100, (R)-N-(3-(3-Amino-5-ethyl-6,6-difluoro-2,5,6,7-tetrahydro-1,4-oxazepin-5-yl)-4-fluorophenyl)-5-methyl-1H-imidazole-4-carboxamide], the values for the IC50 (in assay [1]; with Aβ40) were 516 nM and 2800 nM, respectively.

Consider `C[C@]1(c2cc(NC(=O)c3cnc(C(F)(F)F)cn3)ccc2F)N=C(N)COCC1(F)F` [Example 101, (R)-N-(3-(3-Amino-6,6-difluoro-5-methyl-2,5,6,7-tetrahydro-1,4-oxazepin-5-yl)-4-fluorophenyl)-5-(trifluoromethyl)pyrazine-2-carboxamide formate], for which the results for the IC50 (in assay [1]; in the assay on Aβ40) were 1110 nM and 12 nM, respectively.

For `CC[C@]1(c2cc(NC(=O)c3ncc(F)cc3C)ccc2F)N=C(N)COCC1(F)F` [Example 102, (R)-N-(3-(3-Amino-5-ethyl-6,6-difluoro-2,5,6,7-tetrahydro-1,4-oxazepin-5-yl)-4-fluorophenyl)-5-fluoro-3-methylpicolinamide], the IC50 in assay [1] worked out at 2200 nM; in the assay with Aβ40 it was 33 nM.

With `C[C@]1(c2cc(NC(=O)c3cnc(OCF)cn3)ccc2F)N=C(N)COCC1(F)F` [Example 103, (R)-N-(3-(3-Amino-6,6-difluoro-5-methyl-2,5,6,7-tetrahydro-1,4-oxazepin-5-yl)-4-fluorophenyl)-5-(fluoromethoxy)pyrazine-2-carboxamide formate], the IC50 in assay [1] came out at 307 nM; with Aβ40, 2.9 nM.

For the compound `Cc1conc1C(=O)Nc1ccc(F)c([C@@]2(C)N=C(N)COCC2(F)F)c1` [Example 104, (R)-N(R)-N-(3-(3-Amino-6,6-difluoro-5-methyl-2,5,6,7-tetrahydro-1,4-oxazepin-5-yl)-4-fluorophenyl)-4-methylisoxazole-3-carboxamide], the IC50 came out at 95.6 nM in assay [1] and 160 nM in the assay on Aβ40.

On to `C[C@]1(c2cc(NC(=O)c3cnc(C(F)F)cn3)ccc2F)N=C(N)COCC1(F)F` [Example 105, (R)-N-(3-(3-Amino-6,6-difluoro-5-methyl-2,5,6,7-tetrahydro-1,4-oxazepin-5-yl)-4-fluorophenyl)-5-(difluoromethyl)pyrazine-2-carboxamide formate], for which the results for the IC50 (in assay [1]; in the assay with Aβ40) were 378 nM and 13 nM, respectively.

With `C[C@]1(c2cc(NC(=O)c3nn(CC(F)(F)F)cc3Cl)ccc2F)N=C(N)COCC1(F)F` [Example 106, (R)-N-(3-(3-Amino-6,6-difluoro-5-methyl-2,5,6,7-tetrahydro-1,4-oxazepin-5-yl)-4-fluorophenyl)-4-chloro-1-(2,2,2-trifluoroethyl)-1H-pyrazole-3-carboxamide], the IC50 in assay [1] is 2170 nM; in the assay with Aβ40 it was 630 nM.

In the case of `CCc1n[nH]c(C(=O)Nc2ccc(F)c([C@@]3(C)N=C(N)COCC3(F)F)c2)c1C` [Example 107, (R)-N-(3-(3-Amino-6,6-difluoro-5-methyl-2,5,6,7-tetrahydro-1,4-oxazepin-5-yl)-4-fluorophenyl)-3-ethyl-4-methyl-1H-pyrazole-5-carboxamide], the half-maximal inhibitory concentration (IC50) in assay [1] was 886 nM; in the assay with Aβ40, 790 nM.

In the case of `C[C@]1(c2cc(NC(=O)c3ccc(C(F)F)cn3)ccc2F)N=C(N)COCC1(F)F` [Example 108, (R)-N-(3-(3-Amino-6,6-difluoro-5-methyl-2,5,6,7-tetrahydro-1,4-oxazepin-5-yl)-4-fluorophenyl)-5-(difluoromethyl)picolinamide formate], the IC50 was 49.5 nM in assay [1] and 5.7 nM with Aβ40.

For the compound `COc1cnc(C(=O)Nc2ccc(F)c([C@@]3(C)N=C(N)COCC3(F)F)c2)cn1` [Example 109, (R)-N-(3-(3-Amino-6,6-difluoro-5-methyl-2,5,6,7-tetrahydro-1,4-oxazepin-5-yl)-4-fluorophenyl)-5-methoxypyrazine-2-carboxamide formate], the 50% inhibitory concentration (IC50) in assay [1] was found to be 143 nM; in the assay with Aβ40 it was 1.9 nM.

`CC1(C)OCC(N)=N[C@](C)(c2cc(NC(=O)c3ccc(Cl)cn3)ccc2F)C1(F)F` [Example 110, (R)-N-(3-(3-amino-6,6-difluoro-5,7,7-trimethyl-2,5,6,7-tetrahydro-1,4-oxazepin-5-yl)-4-fluorophenyl)-5-chloropicolinamide]: the concentration for half-maximal inhibition (IC50) in assay [1] turned out to be 9.03 nM; in the assay on Aβ40, 0.8 nM.

As to `CC1(C)OCC(N)=N[C@](C)(c2cc(NC(=O)c3ccc(C#N)cn3)ccc2F)C1(F)F` [Example 111, (R)-N-(3-(3-amino-6,6-difluoro-5,7,7-trimethyl-2,5,6,7-tetrahydro-1,4-oxazepin-5-yl)-4-fluorophenyl)-5-cyanopicolinamide], the results for the IC50 (in assay [1]; with Aβ40) were 30.5 nM and 0.7 nM, respectively.

For the compound `C[C@]1(c2cc(NC(=O)c3ncccc3OCC(F)(F)F)ccc2F)N=C(N)COC[C@@H]1F` [Example 112, N-(3-((5R,6R)-3-amino-6-fluoro-5-methyl-2,5,6,7-tetrahydro-1,4-oxazepin-5-yl)-4-fluorophenyl)-3-(2,2,2-trifluoroethoxy)picolinamide], the figures for the IC50 (in assay [1]; in the assay with Aβ40) were 129 nM and 69 nM, respectively.

With `Cc1nc(C(=O)Nc2ccc(F)c([C@@]3(C)N=C(N)COCC3(F)F)c2)c(C(F)(F)F)o1` [Example 113, (R)-N-(3-(3-Amino-6,6-difluoro-5-methyl-2,5,6,7-tetrahydro-1,4-oxazepin-5-yl)-4-fluorophenyl)-2-methyl-5-(trifluoromethyl)oxazole-4-carboxamide], the results for the half-maximal inhibitory concentration (IC50) (in assay [1]; in the assay with Aβ40) were 123 nM and 35.8 nM, respectively.

`C[C@]1(c2cc(NC(=O)c3nn(C(F)F)cc3Cl)ccc2F)N=C(N)COCC1(F)F` [Example 114, (R)-N-(3-(3-Amino-6,6-difluoro-5-methyl-2,5,6,7-tetrahydro-1,4-oxazepin-5-yl)-4-fluorophenyl)-4-chloro-1-(difluoromethyl)-1H-pyrazole-3-carboxamide]: the concentration for half-maximal inhibition (IC50) in assay [1] came to 9.68 nM; in the assay on Aβ40, 4.9 nM.

For the compound `C[C@]1(c2cc(NC(=O)c3nn(C(F)F)cc3Cl)ccc2F)N=C(N)COC[C@@H]1F` [Example 115, N-(3-((5R,6R)-3-Amino-6-fluoro-5-methyl-2,5,6,7-tetrahydro-1,4-oxazepin-5-yl)-4-fluorophenyl)-4-chloro-1-(difluoromethyl)-1H-pyrazole-3-carboxamide], the 50% inhibitory concentration (IC50) in assay [1] is 6 nM; in the assay on Aβ40 it was 3.8 nM.

Consider `CC[C@]1(c2cc(NC(=O)c3nn(C(F)F)cc3Cl)ccc2F)N=C(N)COCC1(F)F` [Example 116, (R)-N-(3-(3-Amino-5-ethyl-6,6-difluoro-2,5,6,7-tetrahydro-1,4-oxazepin-5-yl)-4-fluorophenyl)-4-chloro-1-(difluoromethyl)-1H-pyrazole-3-carboxamide], for which the 50% inhibitory concentration (IC50) in assay [1] came out at 189 nM; in the assay with Aβ40, 20 nM.

Take `CC1(C)OCC(N)=N[C@](C)(c2cc(NC(=O)c3ccc(C#N)cn3)c(F)cc2F)C1(F)F` [Example 117, (R)-N-(5-(3-amino-6,6-difluoro-5,7,7-trimethyl-2,5,6,7-tetrahydro-1,4-oxazepin-5-yl)-2,4-difluorophenyl)-5-cyanopicolinamide]: the IC50 came to 30000 nM in assay [1] and 34 nM in the assay on Aβ40.

`CC1(C)OCC(N)=N[C@](C)(c2cc(NC(=O)c3ccc(Cl)cn3)c(F)cc2F)C1(F)F` [Example 118, (R)-N-(5-(3-amino-6,6-difluoro-5,7,7-trimethyl-2,5,6,7-tetrahydro-1,4-oxazepin-5-yl)-2,4difluorophenyl)-5-chloropicolinamide]: the IC50 worked out at 14800 nM in assay [1] and 340 nM with Aβ40.

As to `CC[C@]1(c2cc(NC3CCCC3)ccc2F)N=C(N)COCC1(F)F` [Example 119, (R)-5-(5-(Cyclopentylamino)-2-fluorophenyl)-5-ethyl-6,6-difluoro-2,5,6,7-tetrahydro-1,4-oxazepin-3-amine], the figures for the IC50 (in assay [1]; in the assay on Aβ40) were 9.03 nM and 0.8 nM, respectively.
